Source: PubChem BioAssay (NCI)
Where “and” joins values, the source holds several entries; their conditions need not be identical. Equal entries are not always repeated.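 Following 48 hours of exposure in 96-well plates, responses at five concentrations were used to interpolate endpoints linearly. Abbreviation: GI50, concentration required for 50% inhibition of growth. TGI: total growth inhibition.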 Where a SMILES comes first, the peptide text is derived from it. The star is where a group is joined. Boc = CC(C)(C)OC(=O)*; Bn = c1ccc(C*)cc1

Key:
Assay in all cases: NCI tumour cell line growth inhibition, 48 h
SN12C renal = system: SN12C renal
MDA-MB-435 = system: MDA-MB-435
RPMI-8226 leukemia = system: RPMI-8226 leukemia
M19-MEL melanoma = system: M19-MEL melanoma
LXFL 529 NSCLC = system: LXFL 529 NSCLC
RXF-631 renal = system: RXF-631 renal
XF 498 CNS = system: XF 498 CNS
KM20L2 colon = system: KM20L2 colon
DLD-1 colon = system: DLD-1 colon
DMS 273 small cell lung = system: DMS 273 small cell lung
SNB-78 CNS = system: SNB-78 CNS
DMS 114 small cell lung = system: DMS 114 small cell lung
HOP-18 NSCLC = system: HOP-18 NSCLC

SMILES: CC(C)Cn1cnc2c(Cl)nc3ccccc3c21
- TGI (SN12C renal): > 100 µM
- TGI (MDA-MB-435): > 100 µM
- TGI (RPMI-8226 leukemia): > 100 µM

SMILES: Cc1cn(C2CCN(CC3COC(C)(C)O3)O2)c(=O)[nH]c1=O (stereo not given)
- TGI (SN12C renal): > 100 µM
- TGI (MDA-MB-435): > 100 µM
- TGI (RPMI-8226 leukemia): > 100 µM

SMILES: O=C1/C(=C/c2ccc(O)c(O)c2)CC/C1=C\c1ccc(O)c(O)c1
- TGI (SN12C renal): > 79.5 µM
- TGI (MDA-MB-435): > 100 µM
- TGI (RPMI-8226 leukemia): 76.3 µM

SMILES: CCOC(=O)c1sc2nc1CSc1sc(=S)sc1SCc1nc(sc1C(=O)OCC)-c1nc(c(C(=O)OCC)s1)CSc1sc(=S)sc1SCc1nc-2sc1C(=O)OCC
- TGI (SN12C renal): > 10 µM
- TGI (MDA-MB-435): > 10 µM
- TGI (RPMI-8226 leukemia): > 10 µM

SMILES: CCC(C)C(NC(=O)C(CC(C)C)NC(=O)CNC(=O)C(NC(=O)C1CCCN1C(=O)C(CC(C)C)NC(=O)C(N)Cc1ccccc1)C(C)CC)C(=O)NC(CC(C)C)C(N)=O (stereo not given) (H-FLPIGLIL-NH2; configuration not given here)
- TGI (SN12C renal): > 75 µM
- TGI (MDA-MB-435): > 75 µM
- TGI (RPMI-8226 leukemia): > 75 µM

SMILES: CC(=O)n1[nH]c(=O)n(-c2ccccc2)c1=O
- TGI (SN12C renal): > 100 µM
- TGI (MDA-MB-435): > 100 µM
- TGI (RPMI-8226 leukemia): > 100 µM

SMILES: NC(N)=NS(=O)(=O)c1ccc(NC(=O)c2cccc3c(N)c4ccccc4nc23)cc1
- TGI (M19-MEL melanoma): > 100 µM
- TGI (SN12C renal): > 100 µM
- TGI (LXFL 529 NSCLC): > 100 µM
- TGI (RXF-631 renal): > 100 µM
- TGI (RPMI-8226 leukemia): > 100 µM
- TGI (XF 498 CNS): > 100 µM
- TGI (KM20L2 colon): > 100 µM
- TGI (DLD-1 colon): > 100 µM
- TGI (DMS 273 small cell lung): > 100 µM
- TGI (SNB-78 CNS): > 100 µM
- TGI (DMS 114 small cell lung): > 100 µM

SMILES: CC(=O)Nc1cc2nc3n(c2cc1C)CCC3OC(C)=O (stereo not given)
- TGI (SN12C renal): > 100 µM
- TGI (MDA-MB-435): > 100 µM
- TGI (RPMI-8226 leukemia): > 100 µM

SMILES: C(#CC1(Nc2ccccc2)CCN(Cc2ccccc2)CC1)C1(Nc2ccccc2)CCN(Cc2ccccc2)CC1
- TGI (SN12C renal): > 56.2 µM
- TGI (MDA-MB-435): > 100 µM
- TGI (RPMI-8226 leukemia): 4.88 µM

SMILES: CCCCCCCCCCOCCOCCOCCOCCCCC(O)CCCCCCCC1=C[C@H](C)OC1=O (stereo not given in full)
- TGI (SN12C renal): 29.9 µM
- TGI (MDA-MB-435): 28.2 µM
- TGI (RPMI-8226 leukemia): 24 µM

SMILES: COc1cc(C2c3cc4c(cc3OC(NCCO)C2C)OCO4)cc(OC)c1O (stereo not given)
- TGI (SN12C renal): > 100 µM
- TGI (MDA-MB-435): 6.34 µM
- TGI (RPMI-8226 leukemia): 19 µM

SMILES: CCC1CCC2c3c([nH]c4ccc(C)cc34)C3C(=O)N(N(C)C)C(=O)C3C2C1 (stereo not given)
- TGI (SN12C renal): > 100 µM
- TGI (MDA-MB-435): > 33.4 µM
- TGI (RPMI-8226 leukemia): > 88.3 µM

SMILES: O=C(Nc1cccc(C(=O)NCCCO)c1)/C(=C/c1ccccc1)NC(=O)c1ccccc1
- TGI (SN12C renal): > 100 µM
- TGI (MDA-MB-435): > 100 µM
- TGI (RPMI-8226 leukemia): > 100 µM

SMILES: CNC(=O)C(CC(C)C)NC(=O)C(C)NC(=O)C(Cc1ccc(OCc2ccccc2)cc1)NC(=O)C(COCc1ccccc1)NC(=O)OC(C)(C)C (stereo not given) (Boc-S(Bn)Y(Bn)AL-NHMe; configuration not given here)
- GI50 (SN12C renal): > 52.3 µM and 18.8 µM
- TGI (SN12C renal): > 86.4 µM and 42.1 µM
- GI50 (MDA-MB-435): 20.7 µM and 10.1 µM
- TGI (MDA-MB-435): > 55.9 µM and 27.9 µM
- GI50 (RPMI-8226 leukemia): 24.8 µM and 4.27 µM
- TGI (RPMI-8226 leukemia): 64.4 µM and 27 µM

SMILES: Cc1cccc(C)c1N=Nc1ccc(O)c(CN(C)C)c1
- TGI (SN12C renal): > 100 µM
- TGI (MDA-MB-435): > 100 µM
- TGI (RPMI-8226 leukemia): > 100 µM

SMILES: Cn1cc(-c2nnc(-c3ccc(Cl)cc3)[nH]c2=O)c2ccccc21
- TGI (SN12C renal): > 64 µM
- TGI (MDA-MB-435): 1.4 µM
- TGI (RPMI-8226 leukemia): 44.7 µM

SMILES: O=C1C=C(c2ccccc2)O/C1=C\C(=O)c1ccc(Cl)cc1
- TGI (SN12C renal): 11.5 µM
- TGI (MDA-MB-435): 29.8 µM
- TGI (RPMI-8226 leukemia): > 100 µM

SMILES: Cc1cc2c(cc1Cl)SC(NNC1=NCCN1)=NS2(=O)=O
- TGI (SN12C renal): > 10 µM
- TGI (MDA-MB-435): > 10 µM
- TGI (RPMI-8226 leukemia): > 10 µM

SMILES: COc1cc(C2OC[C@@H]3C(=O)OC[C@H]23)cc(O)c1OC (stereo not given in full)
- TGI (SN12C renal): > 100 µM
- TGI (MDA-MB-435): > 100 µM
- TGI (RPMI-8226 leukemia): > 100 µM

SMILES: NC(CCCCNCc1ccccc1)C(=O)O (stereo not given)
- TGI (M19-MEL melanoma): > 100 µM
- TGI (SN12C renal): > 100 µM
- TGI (LXFL 529 NSCLC): > 100 µM
- TGI (RXF-631 renal): > 100 µM
- TGI (RPMI-8226 leukemia): > 100 µM
- TGI (KM20L2 colon): > 100 µM
- TGI (DLD-1 colon): > 100 µM
- TGI (DMS 273 small cell lung): > 100 µM
- TGI (HOP-18 NSCLC): > 100 µM
- TGI (SNB-78 CNS): > 100 µM
- TGI (DMS 114 small cell lung): > 100 µM

SMILES: C=C(Cl)C(C)(Cl)CCC(Cl)C(C)C (stereo not given)
- TGI (SN12C renal): > 100 µM
- TGI (MDA-MB-435): > 100 µM
- TGI (RPMI-8226 leukemia): > 100 µM

SMILES: CCOC(=O)C(NC(=O)CC)(Nc1ccc(F)cc1F)C(F)(F)F (stereo not given)
- TGI (SN12C renal): > 100 µM
- TGI (MDA-MB-435): > 100 µM
- TGI (RPMI-8226 leukemia): > 100 µM

SMILES: Cc1nc2c3c(ccc2[nH]c1=O)C(=O)c1ccccc1C3=O
- TGI (M19-MEL melanoma): > 100 µM
- TGI (SN12C renal): > 100 µM
- TGI (LXFL 529 NSCLC): > 100 µM
- TGI (XF 498 CNS): > 100 µM
- TGI (KM20L2 colon): > 100 µM
- TGI (DLD-1 colon): > 100 µM
- TGI (HOP-18 NSCLC): > 100 µM
- TGI (DMS 114 small cell lung): > 100 µM

SMILES: COc1ccc(/C=C/C(=O)c2sc(-c3cccnc3)nc2C)cc1
- TGI (M19-MEL melanoma): > 100 µM
- TGI (SN12C renal): > 100 µM
- TGI (RXF-631 renal): > 100 µM
- TGI (RPMI-8226 leukemia): 26.2 µM
- TGI (KM20L2 colon): > 100 µM
- TGI (DLD-1 colon): > 100 µM
- TGI (DMS 273 small cell lung): > 100 µM
- TGI (HOP-18 NSCLC): > 100 µM
- TGI (SNB-78 CNS): > 100 µM
- TGI (DMS 114 small cell lung): > 100 µM

SMILES: CCCCC1(O)CC2CC1C(C)C2(C)C (stereo not given)
- TGI (SN12C renal): > 100 µM
- TGI (MDA-MB-435): > 100 µM
- TGI (RPMI-8226 leukemia): > 100 µM

SMILES: CN1CCN(Cc2nc3c(s2)CCc2sccc2-3)CC1
- TGI (SN12C renal): > 100 µM
- TGI (MDA-MB-435): > 100 µM
- TGI (RPMI-8226 leukemia): > 100 µM

SMILES: C=C1c2nc3ccccc3n2C=C(c2ccc(Cl)cc2)N1c1ccc(OCCN2CCCCC2)cc1
- TGI (SN12C renal): > 45 µM
- GI50 (MDA-MB-435): 0.772 µM
- TGI (MDA-MB-435): 45 µM and > 100 µM
- TGI (RPMI-8226 leukemia): 45 µM

SMILES: C/C(=N/O)c1sc(-c2nc(C)c(/C(C)=N\O)s2)nc1C
- TGI (M19-MEL melanoma): > 100 µM
- TGI (SN12C renal): > 100 µM
- TGI (LXFL 529 NSCLC): > 100 µM
- TGI (RXF-631 renal): > 100 µM
- TGI (RPMI-8226 leukemia): > 100 µM
- TGI (XF 498 CNS): > 100 µM
- TGI (KM20L2 colon): > 100 µM
- TGI (DLD-1 colon): > 100 µM
- TGI (DMS 273 small cell lung): > 100 µM
- TGI (HOP-18 NSCLC): > 100 µM
- TGI (SNB-78 CNS): > 100 µM
- TGI (DMS 114 small cell lung): > 100 µM
